This is an account of results in ChEMBL document CHEMBL1154549, “Three new triterpenoids from Peganum nigellastrum” (J Nat Prod, 2000).

This assay deals with DNA topoisomerase 2-alpha (Homo sapiens, UniProt P11388). Nature of the assay: Inhibition of human topoisomerase 2.

As usually defined, the IC50 is the concentration that inhibits the measured activity by half. The low end stands for higher potency, the high end for lower potency.

Sequence of DNA topoisomerase 2-alpha (P11388 whole entry): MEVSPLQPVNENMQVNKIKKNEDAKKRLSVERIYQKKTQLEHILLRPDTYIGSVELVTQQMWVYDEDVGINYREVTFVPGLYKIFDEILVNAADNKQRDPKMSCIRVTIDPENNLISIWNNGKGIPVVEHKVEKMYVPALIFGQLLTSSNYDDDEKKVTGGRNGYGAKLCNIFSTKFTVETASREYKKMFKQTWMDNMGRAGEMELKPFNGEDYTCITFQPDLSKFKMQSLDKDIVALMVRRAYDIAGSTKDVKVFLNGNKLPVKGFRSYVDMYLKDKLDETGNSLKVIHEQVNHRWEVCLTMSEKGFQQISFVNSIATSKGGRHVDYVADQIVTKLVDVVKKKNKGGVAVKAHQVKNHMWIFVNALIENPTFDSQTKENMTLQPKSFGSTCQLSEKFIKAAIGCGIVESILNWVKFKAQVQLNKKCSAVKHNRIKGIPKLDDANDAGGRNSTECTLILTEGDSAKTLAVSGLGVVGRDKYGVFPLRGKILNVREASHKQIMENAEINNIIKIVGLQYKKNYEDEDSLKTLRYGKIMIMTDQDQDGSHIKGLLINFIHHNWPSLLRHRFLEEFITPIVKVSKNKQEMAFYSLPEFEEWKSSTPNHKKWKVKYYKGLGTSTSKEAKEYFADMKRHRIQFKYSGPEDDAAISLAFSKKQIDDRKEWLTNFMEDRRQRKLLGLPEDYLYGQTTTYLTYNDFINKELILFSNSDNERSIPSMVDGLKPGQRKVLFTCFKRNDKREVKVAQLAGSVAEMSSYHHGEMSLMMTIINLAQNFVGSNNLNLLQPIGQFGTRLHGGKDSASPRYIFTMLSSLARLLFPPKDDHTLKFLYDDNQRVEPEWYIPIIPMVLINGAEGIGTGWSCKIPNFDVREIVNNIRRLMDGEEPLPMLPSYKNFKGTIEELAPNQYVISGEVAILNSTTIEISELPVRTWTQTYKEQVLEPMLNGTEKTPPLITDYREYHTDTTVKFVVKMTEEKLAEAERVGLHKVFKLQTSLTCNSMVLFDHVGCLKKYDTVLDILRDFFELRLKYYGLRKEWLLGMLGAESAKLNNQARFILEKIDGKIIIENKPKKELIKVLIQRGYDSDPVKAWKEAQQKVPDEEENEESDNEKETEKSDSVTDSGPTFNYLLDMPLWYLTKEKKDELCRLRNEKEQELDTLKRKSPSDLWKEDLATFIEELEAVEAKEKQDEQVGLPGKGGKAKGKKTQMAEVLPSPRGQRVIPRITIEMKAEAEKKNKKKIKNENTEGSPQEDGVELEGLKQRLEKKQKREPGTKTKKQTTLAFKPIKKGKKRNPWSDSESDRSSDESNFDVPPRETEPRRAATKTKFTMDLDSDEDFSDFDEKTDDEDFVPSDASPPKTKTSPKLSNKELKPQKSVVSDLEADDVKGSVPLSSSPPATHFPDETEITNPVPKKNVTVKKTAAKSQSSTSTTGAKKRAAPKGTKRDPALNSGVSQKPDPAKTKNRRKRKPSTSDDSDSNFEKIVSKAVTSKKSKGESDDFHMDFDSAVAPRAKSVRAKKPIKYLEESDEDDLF

As for `C=C(C)[C@@H]1CC[C@]2(C(=O)OC)CC[C@]3(CO)[C@H](CC[C@@H]4[C@@]5(C)CC[C@@H](O)C(C)(C)[C@@H]5CC[C@]43C)[C@@H]12`, 8.9 µM corresponded to half-maximal inhibition (IC50).

Consider `C[C@H]([C@H](C)N1CC(=O)NC(=O)C1)N1CC(=O)NC(=O)C1` [ICRF-193], for which the IC50 came to 13.9 µM.
